Assays:
MHCC97L cells = assay: RNA-sequencing of drug-treated cells; type: cell-based, human; conditions: 10 μM ifenprodil, 5 μM sorafenib, 24 hours
Protocol: 3×10^5 MHCC97L cells were seeded onto a 10 -cm dish. 10 μM ifenprodil, 5 μM sorafenib, or both were added to the cells 1 day after seeding, and the control group was treated with DMSO (Sigma-Aldrich). After 24 hours of drug treatment, RNA was extracted using the MiniBEST Universal RNA Extraction Kit (TaKaRa) following the manufacturer's protocol. The final product was eluted in DEPC-treated H2O (ThermoFisher Scientific). RNA-seq experiments were performed at the Centre for Genomic Sciences (LKS Faculty of Medicine, The University of Hong Kong). The Illumina adaptors of the paired-end raw sequence reads were trimmed by Trimmomatic 0.39. The STAR aligner version 2.7 was used to align the sequence reads to the human genome (GRCh38.p13, Ensembl release 99) and quantify read counts for each Ensembl gene feature, which generated the raw count gene matrix. Differential expression analysis was performed in R (v 3.6.3) using DESeq2 (1.26.0) with the raw count matrix as input. Three biological replicates each for the ifenprodil-, sorafenib-, and ifenprodil+sorafenib combination-treated groups are compared against the DMSO-treated negative control group. Differentially expressed genes (DEGs) were identified as genes with the absolute values of its shrunken log2 fold-changes bigger than 1 and a false discovery rate smaller than 0.05. Gene annotation was done using the bioMaRt (2.42.1) package with Ensembl Human genes (GRCh38.p13) dataset. Gene ontology enrichment analysis was performed on up/down regulated DEGs retrieved from either ifenprodil, sorafenib, or ifenprodil+sorafenib treatment using string v11.0 (internet site: string-db.org/). Top hits Gene ontologies (biological processes) were identified as GO enriched with a false discovery rate less than 0.01 and contain more than 40 observations for over-expressions and down-regulations of DEGs in total across all treatments. More specific GO terms containing fewer than 3000 genes and fewer than 300 observations across all treatments were then focused on.

RIL-175 cells = assay: Lung metastasis model (tail vein injection); type: in vivo, mouse; conditions: nude mice, 20 mg/kg ifenprodil, 28 mg/kg sorafenib, 10 days
[1] = test system: patient-derived xenografts; assay: Limiting dilution and serial transplantation into secondary mouse recipients; type: in vivo
Protocol: 5×10^5 MHCC97L cells, 3.5×10^5 cells (for PDX1) and 1×10^5 cells (for PDX2) dissociated from HCC patient derived xenograft (PDX), were injected subcutaneously into the left flank of 4 to 5-week-old male BALB/c nude mice and NOD/SCID mice, respectively. 1×10^4 RIL-175 cells were injected into the right median lobe of the livers from 9 to 12-week-old male C57BL/6N mice. Size of subcutaneously xenografted tumors was measured by an external caliper and tumor volume was estimated by the equation: Volume=½ (Length×Width^2), where the length and width represent the largest and smallest diameters, respectively. Drug administration began when the subcutaneous tumor reached ˜0.05 cm3 in size or at day 5 post-injection (for RIL-175 cells), at which point mice were divided into four groups randomly for daily treatment with DMSO, ifenprodil (20 mg/kg/day, intraperitoneally), sorafenib (28 mg/kg/day, orally), or the combination. Ifenprodil and sorafenib were purchased from Selleckchem (#54091) and LC laboratories (#S-8502), respectively. The drug treatment was started after grouping, and lasted for 21 days. Tumor volume and body weight of each mouse were then measured every two days. The estimated tumor volume served as a guide for determining the day when the mice were sacrificed to take actual measurements on the resected tumors. The mice were sacrificed, and the tumor tissues were collected at the end of treatment. Part of the tumor tissues was snap-frozen in liquid nitrogen for protein extraction and immunoblot analysis. Part of the tissues was fixed in 4% paraformaldehyde (PFA) at room temperature for histological staining. The remaining tissues were dissociated into single cells for the limiting dilution spheroid formation assay. To evaluate the tumor-initiating and self-renewal abilities of the drug-treated tumors derived from MHCC97L cells and PDX1 in vivo, limiting dilution and serial transplantation assays were performed. 500, 1,000, 5,000, 10,000, 50,000 cells dissociated from the residual tumor tissues were injected subcutaneously into either flank of 4-5 week-old mice. No drug treatment was further applied. The mice were checked every two days, and tumor incidence and latency were recorded. To evaluate HCC metastases, 4×10^4 RIL-175 cells were injected through tail vein into 6- to 8-week-old male nude mice. Drug administration began at day 5 post-injection, and daily treatment with DMSO, ifenprodil (20 mg/kg/day, intraperitoneally), sorafenib (28 mg/kg/day, orally), or the combination was applied for 10 days before resection of lung tumors. At five and twelve days after the tail-vein injection, the mice were administered 100 mg/kg D-luciferin via peritoneal injection for bioluminescent imaging (using the PE IVIS Spectrum in vivo imaging system) to monitor the lung metastasis.
To determine the efficacy of the drug combination of IFEN and SOR in vivo, MHCC97L cell- and HCC patient-derived xenografts were implanted into mice. […] Briefly, HCC patient-derived xenograft was subcutaneously injected in NOD/SCID mice and treated with 20 mg/kg ifenprodil, 28 mg/kg sorafenib, or combination of ifenprodil and sorafenib, for 21 days. Protein lysates were collected from the resected tumors and analyzed by Western blot. […] Spheroid formation assay was performed on cells being harvested from the same residual xenografts to evaluate their self-renewal ability. […] Combined treatment of ifenprodil and sorafenib decreased the repropagation capability of HCC cells in vivo. Residual tumor cells were harvested from the drug(s)-treated patient-derived xenografts and 50,000, 10,000, 5,000, 1,000, and 500 cells were transplanted into secondary NOD/SCID mouse recipients (n=6 per group). Average tumor latency and incidence were recorded, and tumor-initiating cell frequency was calculated.

[2] = test system: MHCC97L-derived and patient-derived xenografts; assay: Western blot and immunohistochemistry of resected xenografts; type: in vivo, mouse; conditions: HCC patient-derived xenograft PDX1
Protocol: 5×10^5 MHCC97L cells, 3.5×10^5 cells (for PDX1) and 1×10^5 cells (for PDX2) dissociated from HCC patient derived xenograft (PDX), were injected subcutaneously into the left flank of 4 to 5-week-old male BALB/c nude mice and NOD/SCID mice, respectively. 1×10^4 RIL-175 cells were injected into the right median lobe of the livers from 9 to 12-week-old male C57BL/6N mice. Size of subcutaneously xenografted tumors was measured by an external caliper and tumor volume was estimated by the equation: Volume=½ (Length×Width^2), where the length and width represent the largest and smallest diameters, respectively. Drug administration began when the subcutaneous tumor reached ˜0.05 cm3 in size or at day 5 post-injection (for RIL-175 cells), at which point mice were divided into four groups randomly for daily treatment with DMSO, ifenprodil (20 mg/kg/day, intraperitoneally), sorafenib (28 mg/kg/day, orally), or the combination. […] Tumor volume and body weight of each mouse were then measured every two days. […] The mice were checked every two days, and tumor incidence and latency were recorded. […]
Cells or homogenized tissues collected from xenografts were lysed by 2X RIPA lysis buffer supplemented with protease inhibitor cocktail (ProBlock™ Gold Mammalian, Goldbio), PhosSTOP (Roche), 1 mM Na3VO4, and 1 mM NaF. […] Supernatants were quantified using the Bradford assay (BioRad). […]

[3] = 50,000 cells transplanted, n=6 per group
[4] = 50,000 cells transplanted, secondary NOD/SCID recipients

Structure (SMILES)	CDK1A expression (RNA-seq) compared to non-treated cells (MHCC97L cells)	CDK2 expression (RNA-seq) compared to non-treated cells (MHCC97L cells)	DDIT3 expression (RNA-seq) compared to non-treated cells (MHCC97L cells)	ERN1 expression (RNA-seq) compared to non-treated cells (MHCC97L cells)	metastases of mouse HCC cells to form tumors in the lung (RIL-175 cells)	Average tumor latency ([1]; 500 cells transplanted) [days]	Tumor incidence ([1]; 500 cells transplanted)	Average tumor latency ([1]; 1,000 cells transplanted) [days]	Tumor incidence ([1]; 1,000 cells transplanted)	Average tumor latency ([1]; 5,000 cells transplanted) [days]	Tumor incidence ([1]; 5,000 cells transplanted)	Average tumor latency ([1]; 10,000 cells transplanted) [days]	Tumor incidence ([1]; 10,000 cells transplanted)	Tumor incidence [1, 3]	Average tumor latency [1, 4] [days]	tumor vasculature (CD31-positive vessels) [2]	cancer stemness in the HCC mouse models after treatment ([1]; HCC mouse models)
CC(C(O)c1ccc(O)cc1)N1CCC(Cc2ccccc2)CC1 (stereo not drawn) [Ifenprodil, ifenprodil]	significantly upregulated	significantly downregulated	significantly upregulated	no differences were observed	did not affect the metastases	33	4/6	28.33	6/6	31.33	6/6	21	6/6	6/6	24	inhibited tumor vasculature	–
CNC(=O)c1cc(Oc2ccc(NC(=O)Nc3ccc(Cl)c(C(F)(F)F)c3)cc2)ccn1 [Sorafenib, sorafenib]	significantly upregulated	significantly downregulated	significantly upregulated	significantly upregulated	did not affect the metastases	34	3/6	29	6/6	21.67	6/6	21.33	6/6	6/6	22.33	inhibited tumor vasculature	increased cancer stemness

From patent US20230355596A1, “COMPOSITIONS AND METHODS OF USING NMDAR INHIBITORS AND KINASE INHIBITORS TO TREAT LIVER CANCER” (The University of Hong Kong, priority 2022, published 2023)
